For test [1], the system named is U251 or RKO cells. As to the kind of experiment: Cathepsin D western blotting. In kind it is cell-based. Conditions: 18 hours. On the procedure:
Macroautophagy (hereafter “autophagy”) is a process that requires precise fusion of endosomes, autophagosomes, and lysosomes. Lysates from cells treated with Example 1 were prepared and probed by western blotting for LC3-I and LC3-II. Increased levels of LC3-II and increased p62 (sequestesome) were found showing the increased drive to undergo autophagy, in the face of inability to complete the process (i.e. ineffective autophagy). Lysosomes are the final destination of proteins destined for degradation by autophagy, and proteolysis in this organelle depends upon cathepsins among other enzymes.
U251 or RKO cells were treated with Example 1 at the indicated concentrations for 18 hours, and then analyzed by western blotting for cathepsin D and actin (loading control).
U251 or RKO cells were plated onto 10 cm tissue culture dishes and grown in the conditions described previously. When cells were growing in log phase and reached approximately 60% confluency, Example 1 was diluted into the growth media at the indicated concentrations. Cells were incubated at 5% CO2, 37° C. for 18 hr, then washed and harvested as described previously. Cells were pelleted by centrifugation at 180×g, resuspended in 20 mL of 1×PBS pH 7.4, and centrifuged again. […]
Background: In western blotting, separated proteins are transferred to a membrane and probed.

In test [2] the test system is RKO (colon cancer) cells. As to the kind of experiment: LC3 western blotting (autophagy). In kind it is cell-based. Conditions: 1 μM.
The subject of test [3] is Human lymphoma cell lines. As to the kind of experiment: Killing of human lymphoma cell lines. The test is classed as cell-based. To be noted: 72 hours. On the procedure:
Human lymphoma cell lines were incubated for 72 hours with various concentrations of the compound, and survival determined by cell counting or by ATP assay, as shown in FIG. 7. In the lymphoma experiments, RPMI media (Life Technologies) was used as the base formulation for “complete” media. Trypsin was not needed for these non-adherent cell lines. For the “cell-counting” data, cells were pipetted up and down to evenly disburse, then 10 μL of the suspension was counted using an Accuri C6 cytometer, using on forward and side scatter to gate on a viable population.

The test system of test [4] is E2409 murine lymphoma cells. As to the kind of experiment: E2409 lymphoma flank tumor survival study. The test is classed as in vivo, Nude mice. To be noted: 1 mg daily IP injection vs vehicle only; p<0.02. On the procedure:
Nude mice were injected in the flank with 1 million E2409 murine lymphoma cells, and allowed to grow for 4 days, at which point a small detectable lump was observed on each mouse. Mice were injected daily by IP injection with 100 μl of vehicle (10% dmso, 20% cremaphor, 70% water) with or without 1 mg of the test compound. Mice were euthanized when tumor size exceeded 1500 mm^3.

The target in test [5] is PIKfyve (Homo sapiens, UniProt Q9Y2I7). As to the kind of experiment: Kinase panel screen: inhibition of PIKfyve. In kind it is binding. To be noted: 50 nM. On the procedure:
No other kinase was blocked to that extent by 50 nM of Example 1, indicating its high degree of selectivity.
In contrast, 50 nM Apilimod inhibited two kinases to 1% or 10%, and 3 kinases to 35% of control. To examine non-specific binding at higher concentrations, Example 1, Example 3, and Apilimod were tested at 5000 nM. […] PIKfyve is represented at the bottom left of each dendrogram.

For test [6], the system named is Human Glioblastoma multiforme cells (T98G, G22VF, U251) and human medulloblastoma cells (p16, p9). As to the kind of experiment: Cell viability by cell titer-Glo luminescence (ATP level) assay. In kind it is cell-based. To be noted: 72 hours, various concentrations. On the procedure: Human Glioblastoma multiforme cells (T98G, G22VF, U251) and human medulloblastoma cells (p16, p9) were incubated with various concentrations of Example 1 for 72 hours, and then cell viability assessed by cell titer-Glo luminescence (ATP level) assay.
Methods: Example 1 was dissolved into DMSO (ATCC) at a concentration of 40 mM, this stock was further diluted to 2× the highest final working concentration into complete medium consisting of DMEM (Life Technologies), penicillin/streptomycin antibiotic solution (Life Technologies), and 10% FBS (Seradigm). This stock was dispensed into the final column of a white-walled, flat-bottomed 96-well plate (Corning). Serial dilutions (1.5× or 2× depending on the assay) were then made using complete medium down to the lowest assayed concentration of Example 1. The final column of the 96-well plate was saved as a vehicle-only control and included DMSO diluted 1:250 in complete medium. […]
These plates were placed in a 5% CO2, 37° C. incubator. After 72 hrs of incubation, relative ATP content was measured as an indirect indication of the number of viable cells per well. […] This reaction was protected from light and incubated for 10 min at room temperature, then total luminescence was read using a Synergy H1 microplate reader (Biotek).
Raw luminescence numbers or relative ATP concentration (reported as a percentage of the vehicle-treated control) are show. […]

The test system of test [7] is cells in culture. In words: Vacuolization activity in cells in culture. The test is classed as cell-based. The text has this: As used herein the term “EC50 (μM)” refers to the μM concentration of a compound that is required for 50% activity in a vacuolization assay.
Example 2 is a biotinylated derivative of the compound of Example 1.

Results on 2 compounds are retold here after patent publication US12030896B2, “PIKfyve inhibitors” (Mayo Foundation for Medical Education and Research, priority 2018, dated 2024).

Sequence of PIKfyve (Q9Y2I7 whole entry): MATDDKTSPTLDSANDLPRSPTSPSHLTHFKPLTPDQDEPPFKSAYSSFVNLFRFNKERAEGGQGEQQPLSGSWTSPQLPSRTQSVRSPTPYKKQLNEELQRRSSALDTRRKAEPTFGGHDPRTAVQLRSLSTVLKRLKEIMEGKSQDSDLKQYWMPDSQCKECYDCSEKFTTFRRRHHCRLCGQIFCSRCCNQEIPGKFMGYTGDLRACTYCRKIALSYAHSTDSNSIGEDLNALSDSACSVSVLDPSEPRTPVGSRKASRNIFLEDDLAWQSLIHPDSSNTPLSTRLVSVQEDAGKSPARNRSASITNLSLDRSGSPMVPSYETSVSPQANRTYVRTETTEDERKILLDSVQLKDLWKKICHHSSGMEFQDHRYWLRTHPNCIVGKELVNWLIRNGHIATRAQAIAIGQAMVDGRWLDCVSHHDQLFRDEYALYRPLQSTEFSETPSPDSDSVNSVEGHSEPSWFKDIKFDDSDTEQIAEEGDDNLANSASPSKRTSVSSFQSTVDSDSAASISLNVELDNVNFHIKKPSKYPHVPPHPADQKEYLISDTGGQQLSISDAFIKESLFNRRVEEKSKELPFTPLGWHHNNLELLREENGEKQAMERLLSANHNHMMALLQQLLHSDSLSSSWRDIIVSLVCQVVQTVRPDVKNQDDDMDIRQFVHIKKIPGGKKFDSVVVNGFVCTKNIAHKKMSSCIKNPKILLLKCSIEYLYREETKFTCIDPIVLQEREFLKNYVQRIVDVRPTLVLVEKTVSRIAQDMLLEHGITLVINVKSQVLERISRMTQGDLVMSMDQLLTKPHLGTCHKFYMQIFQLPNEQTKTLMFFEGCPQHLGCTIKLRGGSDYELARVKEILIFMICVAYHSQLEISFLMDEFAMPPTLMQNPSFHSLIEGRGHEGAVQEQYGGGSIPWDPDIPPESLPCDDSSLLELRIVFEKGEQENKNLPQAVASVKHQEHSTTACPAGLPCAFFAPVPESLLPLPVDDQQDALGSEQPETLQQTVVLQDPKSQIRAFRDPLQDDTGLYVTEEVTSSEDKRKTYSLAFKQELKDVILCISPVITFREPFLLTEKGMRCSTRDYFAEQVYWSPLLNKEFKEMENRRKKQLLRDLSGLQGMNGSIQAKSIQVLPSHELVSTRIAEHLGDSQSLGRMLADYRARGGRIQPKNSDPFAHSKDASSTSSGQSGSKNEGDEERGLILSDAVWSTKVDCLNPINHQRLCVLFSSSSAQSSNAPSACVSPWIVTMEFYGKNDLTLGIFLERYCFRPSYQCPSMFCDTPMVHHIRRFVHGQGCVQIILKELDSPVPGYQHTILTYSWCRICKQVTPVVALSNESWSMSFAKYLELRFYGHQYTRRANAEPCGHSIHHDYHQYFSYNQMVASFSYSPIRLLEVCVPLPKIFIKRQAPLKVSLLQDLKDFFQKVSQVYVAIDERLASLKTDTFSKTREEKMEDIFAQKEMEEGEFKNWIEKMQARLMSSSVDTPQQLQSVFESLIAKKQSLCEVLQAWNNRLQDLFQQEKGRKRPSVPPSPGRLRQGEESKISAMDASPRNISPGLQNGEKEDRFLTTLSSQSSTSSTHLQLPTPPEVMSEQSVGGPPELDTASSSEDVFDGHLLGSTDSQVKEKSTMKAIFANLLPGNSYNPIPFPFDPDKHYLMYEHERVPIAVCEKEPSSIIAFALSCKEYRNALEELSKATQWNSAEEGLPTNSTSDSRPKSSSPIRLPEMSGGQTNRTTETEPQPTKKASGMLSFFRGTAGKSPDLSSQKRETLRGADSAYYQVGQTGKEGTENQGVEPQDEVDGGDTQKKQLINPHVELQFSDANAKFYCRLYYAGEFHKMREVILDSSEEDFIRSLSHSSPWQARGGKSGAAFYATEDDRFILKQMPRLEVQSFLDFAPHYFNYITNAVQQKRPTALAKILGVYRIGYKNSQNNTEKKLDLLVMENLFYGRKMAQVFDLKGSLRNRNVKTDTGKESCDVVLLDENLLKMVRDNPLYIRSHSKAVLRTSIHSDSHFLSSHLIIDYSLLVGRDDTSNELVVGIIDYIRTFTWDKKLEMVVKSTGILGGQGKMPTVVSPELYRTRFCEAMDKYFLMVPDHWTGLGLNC

`Cc1ccc(Nc2nc(N/N=C/c3c[nH]c4ccccc34)nc(N3CCOCC3)n2)cc1` [Example 1, (E)-4-(2-((1H-indol-3-yl)methylene)hydrazinyl)-6-morpholino-N-(p-tolyl)-1,3,5-triazin-2-amine]: in test [1], the mature cleaved cathepsin entry is given as “relative loss” and the “uncleaved precursor cathepsin D” value was “accumulation”. Also, the “induction of LC3” value in test [2] was “dramatic and rapid induction”. For the same compound, in test [3], the cell killing result is on record as “killing”. In addition, the survival entry in test [4] is reported as “prolonged survival”. For the same compound, in test [5], the inhibition (commonly how much of the control response was suppressed) at 0.05 µM was above 99%. Moreover, the “cell viability (ATP level)” value in test [6] is “killed effectively”.

As to `Cc1ccc(Nc2nc(N/N=C/c3c[nH]c4ccccc34)cc(N3CCOCC3)n2)cc1` [Example 3, (E)-4-(2-((1H-indol-3-yl)methylene)hydrazinyl)-6-morpholino-N-(p-tolyl)pyrimidin-2-amine], in test [7], a half-maximal response (EC50) required 4 nM.
